The test addresses T1, transfer ribonucleic acid polymerase (Mus musculus, UniProt B2RXC6+P59470).
T1 sequence (B2RXC6 1-1390): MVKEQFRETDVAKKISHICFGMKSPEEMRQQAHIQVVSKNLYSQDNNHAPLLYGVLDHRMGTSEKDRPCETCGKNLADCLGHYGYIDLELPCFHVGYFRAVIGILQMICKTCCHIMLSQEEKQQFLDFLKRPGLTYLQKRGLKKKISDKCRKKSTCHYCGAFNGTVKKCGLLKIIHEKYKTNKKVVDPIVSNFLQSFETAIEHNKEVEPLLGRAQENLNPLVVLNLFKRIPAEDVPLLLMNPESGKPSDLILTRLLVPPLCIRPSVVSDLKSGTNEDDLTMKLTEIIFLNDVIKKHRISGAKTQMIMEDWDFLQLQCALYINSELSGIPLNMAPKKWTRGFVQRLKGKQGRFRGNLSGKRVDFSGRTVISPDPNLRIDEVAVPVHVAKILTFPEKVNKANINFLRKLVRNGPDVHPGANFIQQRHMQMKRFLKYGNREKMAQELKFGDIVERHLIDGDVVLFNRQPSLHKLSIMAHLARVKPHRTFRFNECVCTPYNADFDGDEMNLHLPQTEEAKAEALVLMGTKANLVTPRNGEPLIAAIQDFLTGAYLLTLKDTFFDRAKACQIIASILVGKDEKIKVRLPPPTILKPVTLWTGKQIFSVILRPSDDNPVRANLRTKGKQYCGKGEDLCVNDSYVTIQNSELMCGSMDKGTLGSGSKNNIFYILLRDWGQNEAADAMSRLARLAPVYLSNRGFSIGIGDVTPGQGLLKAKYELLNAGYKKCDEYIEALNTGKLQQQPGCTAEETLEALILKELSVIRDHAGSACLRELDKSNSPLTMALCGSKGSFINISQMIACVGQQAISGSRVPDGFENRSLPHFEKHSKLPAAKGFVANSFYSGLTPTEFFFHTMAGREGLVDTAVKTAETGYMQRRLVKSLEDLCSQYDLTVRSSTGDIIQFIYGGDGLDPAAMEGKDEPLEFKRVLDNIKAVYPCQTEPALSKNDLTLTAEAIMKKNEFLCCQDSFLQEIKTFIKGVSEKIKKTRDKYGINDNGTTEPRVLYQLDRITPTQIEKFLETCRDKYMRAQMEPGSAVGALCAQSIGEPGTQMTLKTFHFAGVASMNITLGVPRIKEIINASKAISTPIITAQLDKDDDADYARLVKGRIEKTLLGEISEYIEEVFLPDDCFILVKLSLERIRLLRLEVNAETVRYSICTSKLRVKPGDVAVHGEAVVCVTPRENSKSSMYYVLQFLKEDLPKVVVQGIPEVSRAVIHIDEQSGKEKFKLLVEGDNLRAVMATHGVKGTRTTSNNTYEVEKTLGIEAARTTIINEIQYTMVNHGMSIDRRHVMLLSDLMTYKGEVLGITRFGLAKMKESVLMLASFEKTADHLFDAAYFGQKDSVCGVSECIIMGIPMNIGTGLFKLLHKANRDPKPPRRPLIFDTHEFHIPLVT
T1 sequence (P59470 1-1133): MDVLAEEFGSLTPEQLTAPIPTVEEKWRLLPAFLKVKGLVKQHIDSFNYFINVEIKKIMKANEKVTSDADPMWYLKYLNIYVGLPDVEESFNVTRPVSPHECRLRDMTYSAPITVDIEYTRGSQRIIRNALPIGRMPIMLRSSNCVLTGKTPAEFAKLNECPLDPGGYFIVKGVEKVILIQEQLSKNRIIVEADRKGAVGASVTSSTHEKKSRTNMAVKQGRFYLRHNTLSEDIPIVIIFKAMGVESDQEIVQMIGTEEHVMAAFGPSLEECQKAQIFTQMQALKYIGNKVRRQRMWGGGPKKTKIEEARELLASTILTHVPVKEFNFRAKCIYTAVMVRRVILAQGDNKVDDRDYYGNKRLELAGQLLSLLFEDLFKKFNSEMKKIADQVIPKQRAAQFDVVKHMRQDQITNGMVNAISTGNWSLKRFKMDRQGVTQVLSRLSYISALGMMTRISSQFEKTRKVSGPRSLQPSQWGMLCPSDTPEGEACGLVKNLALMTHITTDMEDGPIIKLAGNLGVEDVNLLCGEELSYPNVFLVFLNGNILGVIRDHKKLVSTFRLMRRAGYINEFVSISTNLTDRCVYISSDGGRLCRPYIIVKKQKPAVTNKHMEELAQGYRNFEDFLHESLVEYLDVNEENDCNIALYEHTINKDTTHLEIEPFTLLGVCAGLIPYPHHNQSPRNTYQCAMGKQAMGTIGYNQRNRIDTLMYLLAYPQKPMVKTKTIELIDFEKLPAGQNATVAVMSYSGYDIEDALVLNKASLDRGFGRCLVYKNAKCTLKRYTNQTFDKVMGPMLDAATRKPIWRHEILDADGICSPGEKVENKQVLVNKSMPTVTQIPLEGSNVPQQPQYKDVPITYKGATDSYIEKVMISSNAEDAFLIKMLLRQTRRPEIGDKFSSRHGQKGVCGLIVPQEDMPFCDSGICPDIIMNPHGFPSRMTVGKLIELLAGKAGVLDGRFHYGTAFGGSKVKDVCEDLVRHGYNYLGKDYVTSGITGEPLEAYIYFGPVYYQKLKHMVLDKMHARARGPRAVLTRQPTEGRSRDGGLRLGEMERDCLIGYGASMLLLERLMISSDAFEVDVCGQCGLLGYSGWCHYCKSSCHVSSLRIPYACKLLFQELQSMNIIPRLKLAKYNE
Put plainly: In vitro transfer ribonucleic acid polymerase activity. The format is biochemical. The following applies: read-out: ID50, Transfer ribonucleic acid polymerase activity. As for the experimental part: CF1 male mice (~30 g) were implanted with 2×10^6 Ehrlich ascites tumor cells, intraperitoneally on Day 0. Compound I was suspended by homogenation in 0.05% polysorbate.80-water and administered intraperitoneally at 10 and 20 mg/kg for 9 days to determine its effectiveness for inhibition of tumor growth. Mice were sacrificed on Day 10, and the ascites fluid was collected from the peritoneal cavity. The volume and ascrit (packed cell volume) were determined for each animal and the percent inhibition of tumor growth was calculated. For the metabolic studies, mice were treated on Days 8 and 9 with 10 mg/kg of Compound I, intraperitoneally. The animal was sacrificed on Day 10 and the ascites fluid harvested. The in vitro metabolic studies were performed at […] final concentration of Compound I.
In vitro and in vivo nuclear deoxyribonucleic acid polymerase activity was determined on isolated Ehrlich ascites cell nuclei. The incubation was that described by Sawada et al [Can. Res., 34, 3341 (1974)] except that [methyl-^3 H] deoxythymidine triphosphate (82.4 Ci/mmol) was used. The acid insoluble nucleic acid was collected on GF/F filters and counted. Nuclear ribonucleic acid polymerase activities were determined on enzymes isolated from nuclei. […] The acid insoluble ribonucleic acid was collected on nitrocellulose filters and counted.

pIC50: −log10 of the molar value.

Consider “{Cu[(CH3)3 N.BH2 CO2 ]2.(CH3)3 N.BH2 COOH} [Compound I]”, for which the pIC50 was 3.36.

The record behind these values is patent US4550186A, “Binuclear copper (II) carboxylates formed from amine-carboxyboranes” (Duke University, priority 1983, dated 1985).
